In patent publication US11180767B2, “Protease deficient filamentous fungal cells and methods of use thereof” (GLYKOS FINLAND OY, priority 2012, dated 2021):

What was measured:
serine proteases = experiment: IgG degradation by aminobenzamidine purified serine protease fraction F4 with and without PMSF; assay type: biochemical, Trichoderma reesei; conditions: PMSF 5 mM; pH 5.5, 37°C, 20 hours
Protocol: Serine proteases comprise a major family of proteases that have been identified as antibody degrading enzymes. Accordingly, serine proteases were purified from Trichoderma supernatant. The serine proteases were first affinity purified from fermentation culture supernatants with a p-aminobenzamidine sepharose 4 fast flow resin (GE healthcare #17-5123-10). 15 ml of the fermentation culture supernatant was batch bound to the resin in 35 ml of binding buffer (0.05 M Tris-HCL, 0.5 M NaCl, pH 7.4). After packing and washing the column with the same binding buffer, the column was eluted with 0.05 M glycine, pH 3.0. The fractions were then neutralized with 1M Tris HCL, pH 8.8.
In total 1.7 mg of protein was purified from the affinity column. When the peak fractions were run on a 4-15% SDS-PAGE gel, several major bands (˜110 kD, 53 kD, 39 kD, 29 kD) and many more minor bands were seen. The peak fraction protein mixture (F4) was then tested for protease activity by incubated a sample of the F4 with human IgG1 in sodium citrate buffer (50 mM, pH 5.5) at 37° C. for 20 hours. The samples were incubated both in the presence and absence of the serine protease inhibitor PMSF (5 mM). The incubated samples were then analyzed by immunoblotting with an anti-IgG heavy chain AP conjugate antibody (Sigma #A3188) and an anti-IgG light chain AP conjugate antibody (Sigma #A3812) diluted 1:30,000 in TBST.

[1] = system: tryptic and chymotryptic proteases; experiment: In vitro inhibitor treatment: rituximab heavy chain degradation in M44 supernatant; assay type: biochemical, Trichoderma reesei; conditions: 100 μM chymostatin or 1 mg/ml SBTI; M44 supernatant 6 mg/ml, pH 5.5
Protocol: Based on the knowledge that the heavy chain is cleaved by tryptic and chymotryptic proteases, inhibitors of these two enzyme classes were tested against antibody degradation both in vitro and in culture experiments utilizing an antibody producing T. reesei strain. The inhibitors soybean trypsin inhibitor (SBTI) and chymostatin were tested, as they have been previously shown in in vitro experiments to stabilize antibody heavy chains.
Chymostatin and SBTI were analyzed in vitro with culture supernatant. Supernatant from a fed batch fermentor culture was diluted to 6 mg/ml with sodium citrate buffer pH 5.5 (pH 5.5; 28° C.; 20 g/L spent grain extract, 60 g/L lactose). […] The strain was grown in Trichoderma minimal medium supplemented with 20 g/l spent grain extract and 60 g/l lactose at pH 5.5 and 28° C.
To this diluted supernatant 0.05 μg μl of rituximab, 100 μM chymostatin, 1 mg/ml SBTI, or a combination of both inhibitors was added in a total volume of 50 μl and sampled at 0, 1, and 19 hours to assess the early and late degradation of the rituximab antibody heavy chain. The resulting heavy chain products were analyzed by immunoblot using and anti-heavy chain AP conjugated antibody (Sigma #A3188) diluted 1:30,000 in TBST (FIG. 35). […] Additional fragments were generated after 19 hours, the two major products remained.

[2] = system: M369 human growth hormone strain; experiment: hGH production in 24 well cultures with inhibitors and supplements; assay type: cell-based, Trichoderma reesei; conditions: 24 well culture, pH 4.5, day 4 immunoblot
Protocol: To evaluate what inhibitors would best stabilize production of hGH, 24 well cultures of these strains were performed. The M369 human growth hormone strain (Δpep1Δtsp1Δslp1Δgap1Δgap2) was grown along with single components or with combinations of the following: trypsin and subtilisin inhibitor SBTI, the acidic protease inhibitor peptide SIP, the acidic protease inhibitor peptide LIP, the aspartic protease inhibitor pepstatin A free peptide, pepstatin A immobilized to agarose beads, the trypsin and subtilisin inhibitor BBI from lima bean, the […] chymostatin, and BSA. Three independent wells were chosen for control wells where no inhibitors or supplements were added. These two strains were grown in 3 ml of TrMM with diammonium citrate without ammonium sulfate, 100 mM PIPPS, 20 g/L spent grain extract, 40 g/L lactose adjusted to pH 4.5. The 24 well plates were shaken at 800 rpm, 85% humidity, and 28° C. The cultures were grown for 6 days and covered with an air permeable membrane.
Inhibitors were added first on day 1 and then daily beginning on day 3. 100 μl samples were taken from the culture wells beginning on day 3. The mycelium was spun down for 5 minutes at 13 k and the supernatant collected. From the culture supernatant 12 μl was loaded in a 4-20% SDS PAGE gel and immunoblotting made on nitrocellulose with mouse anti-hGH antibody (2 μg/ml) and goat anti-mouse IgG AP conjugated secondary antibody diluted 1:10,000 in TBST.
Estimating the expression levels relative to the 200 ng control sample, the control wells produced between 3-6 mg/L of hGH, the BSA (0.25%)/SIP (50 μM)/8BTI (0.2 mg/ml) treatment produced 24.5 mg/L, the SIP (50 μM)/8BTI (0.2 mg/ml) treatment produced 26.6 mg/L, and the pepstatin A beads/SBTI (0.2 mg/ml) addition yielded 24.5 mg/L of hGH. Therefore, using a combination of inhibitors and additives worked best increasing the production levels by at least 4-fold. The critical parameter was to include an aspartic protease inhibitor into the mix.

[3] = system: rituximab antibody producing strain; experiment: Treatment of T. reesei rituximab cultures with inhibitors; assay type: cell-based, Trichoderma reesei
Protocol: The effectiveness of the inhibitors was also tested with the rituximab antibody producing strain, which contains a VALEKR linker sequence and the pep1 deletion. This strain was grown in triplicate, in small flasks both in presence or absence of chymostatin, SBTI, or pepstatin A. The small shake flasks contained 50 ml of TrMM plus lactose (40 g/l), spent grain extract (20 g/l), and buffer with 100 mM PIPPS at pH 5.5. The SBTI inhibitor was added to the culture at final concentrations of either 100 μg/ml or 500 μg/ml. Chymostatin was used at 100 μM, and pepstatin A was used at 10 μM. Each of the three inhibitors was added to the cultures daily on day 2, 3, 4, and 5.
Growth of the cultures was followed daily by pH from day 2 until day 7. […] In the PIPPS buffered cultures, the pH decreased from an initial pH of 5.5 down to a pH of 4.8 after day 6. With chymostatin and pepstatin A the cultures were monitored up to day 7. On day 7 the average pH for the control bottles was 4.6, while the average pH for chymostatin treated cultures was 4.9, and the average pH of pepstatin A treated cultures was 5.0.
Culture supernatant samples (30 μl) were also collected on days 3, 4, and 5 for analysis of antibody production. The analysis was performed by immunoblots using an anti-IgG heavy chain antibody AP conjugate (Sigma #A3188) and an anti-light chain antibody AP conjugate (Sigma #A3812). Each antibody was diluted 1:30,000 in TBST. The full length rituximab heavy chain is about 51 kD, the rituximab light chain CHBI fusion is about 100 kD, and the free rituximab light chain is about 28 kD.

[4] = system: SIP purified proteases (PEP2, PEP3, PEP4, PEP5, GAP1, SLP2); experiment: Protease activity of SIP purified fractions against casein with inhibitors (EnzChek); assay type: biochemical, Trichoderma reesei; conditions: pH 5.5; for proteases inhibited: SIP, LIP, pepstatin A 60 μM, SBTI 200 μg/ml
Protocol: Protease activity was then tested against casein both in the presence and absence of protease inhibitors. Protease activity against casein was tested using the EnzChek protease assay kit (Molecular probes #E6638, green fluorescent casein substrate). The working stock solution was prepared by diluting the stock to 10 μg ml in 50 mM sodium citrate, pH 5.5. The purified protease fractions (10 μl) were diluted with […] of sodium citrate, pH 5.5. 100 μl of the diluted substrate was combined with the diluted protease fractions in a 96 well sample plate. The plate was then covered and kept at 37° C. for one to three hours. Fluorescence readings were taken at one, two, and three hours with a Varioskan fluorescent plate reader (Thermo Scientific) using 485 nm excitation and 530 nm emission.
The SIP inhibitor peptide, pepstatin A, LIP peptide, SBTI, and chymostatin were used as inhibitors. […] SIP, LIP, and pepstatin A were used at a concentration of 60 μM, and SBTI was used at a concentration of 200 μg/ml.

[5] = system: aspartic and glutamic protease; experiment: MAB01 heavy chain degradation by SIP purified proteases with and without SIP inhibitor peptide; assay type: biochemical, Trichoderma reesei; conditions: overnight 37°C, pH 4.0 and pH 5.5
Protocol: Several additional aspartic proteases were isolated from the T. reesei M277 triple protease deletion strain (pep1, tsp1, slp1). […] The M277 deletion strain was generated as described in Example 4 below. The strain was grown in Trichoderma minimal medium supplemented with 20 g/l spent grain extract, 60 g/l lactose, and 9 g/l casamino acids at pH 5.5 and 28° C. The aspartic proteases were isolated by affinity purification using the SIP peptide (Ac-Phe-Lys-Phe-(AHPPA)-Leu-Arg-NH2) (Kataoka Y. et al. 2005 FEBS Letters 579, pp 2991-2994). The SIP peptide was conjugated to NHS activated agarose resin (Pierce #26196) using the protocol provided by the manufacturer. The SIP affinity resin was used to purify proteases. Fermentation supernatant (15 ml) from the T. reesei M277 strain was then used to batch bind proteases to the resin in 35 ml buffer containing 50 mM sodium acetate, 0.2 M NaCl, pH 3.0 (from fermentation conditions pH 5.5; 28° C.; 9 g/l casaminoacids; 20 g/L spent grain extract, 60 g/L lactose). The column was washed with the same binding buffer and bound protein removed with elution buffer (50 mM Tris-HCL, 1 M NaCl, pH 8.5). […]
The SIP purified proteases were then tested for their ability to degrade the MAB01 antibody heavy chain. […] The collected samples were analyzed by immunoblotting with an anti-IgG heavy chain antibody AP conjugate (Sigma A3188) diluted 1:30,000 in TBST. […]

[6] = system: proteases in supernatant from the 6-fold protease deletion strain M400; experiment: Protease stability of proteins spiked into supernatant of the 6-fold protease deletion strain; assay type: biochemical, Trichoderma reesei; conditions: M400 supernatant pH 4.2, 20 hours, 37°C, 0.05 μg/μl
Protocol: The protease stability of the model proteins IGF1, hGH, and IFNα2b were analyzed by spiking them into supernatant from the 6-fold protease deletion strain (Δpep1Δtsp1Δslp1Δgap1Δgap2Δpep4) M400. The supernatant was collected from a large shake flask culture CAH15. The undiluted supernatant from the shake flask cultivation CAH15 was incubated with the purified model proteins with and without pepstatin A (50 μM) and SBTI (0.2 mg/ml) inhibitors for 20 hours at 37° C. The 5 day culture supernatant pH was around 4.2. The reaction containing 0.05 μg μl of model protein was sampled after 20 hours. 50 mM sodium citrate pH 4.0 spiked with model proteins (0.05 g 1) was used as a buffer control.
From each reaction 10 μl was loaded into an 18% SDS PAGE gel and run for 30 minutes at 200 V. The proteins in the gel were then transferred to nitrocellulose for immunoblotting. The nitrocellulose membrane was blocked for 1 hour at room temperature with 5% milk in TBST buffer. The individual blots were probed with their specific primary antibody to detect the appropriate model protein for 1 hour at room temperature on a shaker. The mouse anti-IGF1 antibody (R&D systems #mab291) was used at 2 μg/ml diluted in TBST. The mouse anti-rhGH antibody (Abeam #ab51232) was used at 2 μg/ml diluted in TBST. The mouse anti-IFNα2b antibody (Abeam #ab9386) was used at 1 μg/ml diluted in TBST. After briefly washing the blot membranes with TBST, the secondary antibody was added for 1 hour at room temperature shaking. The secondary goat anti-mouse AP conjugated antibody (Biorad #170-6520) was diluted 1:10,000 in TBST.
This same spiking experiment as was done with MAB01 to investigate its stability in the 6 protease deletion supernatant with and without inhibitors (FIG. 43). Samples were taken as described above and immunoblotted with an anti-heavy chain AP conjugated antibody (Sigma #A3188). […] There was no obvious benefit having used inhibitors. The antibody was stable in this pH 4.2 supernatant. […]

[7] = third chymostatin culture sample, 100 μM

## O=S(=O)(F)Cc1ccccc1 [PMSF]
Serine proteases
  IgG degradation by F4 serine protease fraction: able to inhibit most of the degradation

## CC(C)C[C@H](NC(=O)[C@@H](NC(=O)N[C@@H](Cc1ccccc1)C(=O)O)[C@@H]1CCN=C(N)N1)C(=O)N[C@H](C=O)Cc1ccccc1 [chymostatin]
[1]
  rituximab heavy chain fragment formation: inhibited the initial production of the 42 kDa fragment
[2]
  effect on hGH production: improved the amount of full length product observed
[3]; day 5, SBTI 100 or 500 μg/ml, chymostatin 100 μM
  rituximab heavy chain production vs untreated cultures: increased the amount of full length rituximab heavy chain produced
[3]; small shake flasks, inhibitors added daily day 2-5
  effect on culture growth (followed by pH): small reduction in growth
[3]; [7]
  full length rituximab heavy chain: approximately 90%
  heavy chain fragment: ~10%
[4]
  proteases inhibited: inhibited SLP2
[4]; FIG. 11
  inhibition of SIP purified protease activity against casein: able to inhibit the SLP2 protease

## Ac-Phe-Lys-Phe-(AHPPA)-Leu-Arg-NH2 (FKFXLR; HELM PEPTIDE1{[ac].F.K.F.[O=C(C[C@H](O)[C@H](Cc1ccccc1)N[*:1])[*:2]].L.R.[am]}$$$$V2.0; SMILES CC(=O)N[C@@H](Cc1ccccc1)C(=O)N[C@@H](CCCCN)C(=O)N[C@@H](Cc1ccccc1)C(=O)N[C@@H](Cc1ccccc1)[C@@H](O)CC(=O)N[C@@H](CC(C)C)C(=O)N[C@@H](CCCNC(=N)N)C(N)=O) [SIP peptide]
[2]
  effect on hGH production: noticeable increase in hGH amount
[4]
  proteases inhibited: inhibited both aspartic and glutamic proteases
[5]
  aspartic and glutamic protease activities against MAB01 heavy chain: inhibited

## IGF1: insulin-like growth factor 1, model protein
[6]
  stability of model protein in supernatant without inhibitors: the majority appeared to be degraded

## hGH: human growth hormone, model protein
[6]
  stability of model protein in supernatant without inhibitors: the majority appeared to be degraded
